{"source": "patent US20250387437A1", "about": "“PHARMACEUTICAL COMPOSITION FOR PREVENTING OR TREATING ALOPECIA INCLUDING AKKERMANSIA” (priority 2022, published 2025)", "key": {"[1]": {"tested_on": "alopecia-induced mice (testosterone)", "experiment": "Confirmation of mouse hair growth through photograph", "type": "in vivo", "details": "testosterone 0.5 mg/day s.c. alopecia model, male C57BL/6 mice, daily treatment for 5 weeks, FIG. 1", "description": "The animal experiment was carried out in compliance with the Animal use and Care Protocol of the Institutional Animal Care and Use Committee (IACUC). Seven-week-old male C57BL/6 mice were purchased and acclimated for 1 week, and then bred for 5 weeks. Regarding the breeding environment, the mice were bred at a constant temperature (22° C.) and relative humidity (40% to 60%) with a 12-hr light/12-hr dark cycle. A chow diet was fed to all experimental groups.\nIn order to make an alopecia model, 0.5 mg/day of testosterone was subcutaneously injected to mice in all experimental groups. A group in which alopecia was induced by testosterone administration was used as a negative control group, and finasteride was orally administered at 0.5 mg/kg/day as a positive control group. In the groups in which live bacteria and killed bacteria of the genus Akkermansia of the present invention are administrated, PBS containing L-cysteine and glycerol was orally administered as a vehicle.\nFor the mice in each experimental group, the degree of hair growth was observed through photographing hair. […] From the left side, there are the results of the negative control group (Testosterone), the positive control group (T+Finasteride), the Akkermansia muciniphila live bacteria-administered group (T+EB-AMDK19), and the Akkermansia muciniphila killed bacteria-administered group (T+EB-AMDK19 HI). […]"}, "[2]": {"tested_on": "alopecia-induced mice (testosterone)", "experiment": "Hair growth length increase effect", "type": "in vivo, C57BL/6 mice", "details": "after the 5-week experiment, average per group, FIGS. 2a-b", "description": "The animal experiment was carried out in compliance with the Animal use and Care Protocol of the Institutional Animal Care and Use Committee (IACUC). Seven-week-old male C57BL/6 mice were purchased and acclimated for 1 week, and then bred for 5 weeks. Regarding the breeding environment, the mice were bred at a constant temperature (22° C.) and relative humidity (40% to 60%) with a 12-hr light/12-hr dark cycle. A chow diet was fed to all experimental groups. […] In order to make an alopecia model, 0.5 mg/day of testosterone was subcutaneously injected to mice in all experimental groups. A group in which alopecia was induced by testosterone administration was used as a negative control group, and finasteride was orally administered at 0.5 mg/kg/day as a positive control group. In the groups in which live bacteria and killed bacteria of the genus Akkermansia of the present invention are administrated, PBS containing L-cysteine and glycerol was orally administered as a vehicle. [table] After the 5-week experiment was completed, the hair length was measured for individuals in each experimental group to calculate an average value, and the results of the hair growth length increase effect experiment are shown as a graph in FIG. 2."}, "[3]": {"tested_on": "hair follicles of alopecia-induced C57BL/6 mice", "experiment": "Histological change in mouse hair follicles (hematoxylin-eosin staining)", "type": "in vivo", "details": "skin tissue collected at week 5, H&E, optical microscope, FIGS. 5a-b", "description": "The animal experiment was carried out in compliance with the Animal use and Care Protocol of the Institutional Animal Care and Use Committee (IACUC). Seven-week-old male C57BL/6 mice were purchased and acclimated for 1 week, and then bred for 5 weeks. Regarding the breeding environment, the mice were bred at a constant temperature (22° C.) and relative humidity (40% to 60%) with a 12-hr light/12-hr dark cycle. A chow diet was fed to all experimental groups. […] In order to make an alopecia model, 0.5 mg/day of testosterone was subcutaneously injected to mice in all experimental groups. A group in which alopecia was induced by testosterone administration was used as a negative control group, and finasteride was orally administered at 0.5 mg/kg/day as a positive control group. In the groups in which live bacteria and killed bacteria of the genus Akkermansia of the present invention are administrated, PBS containing L-cysteine and glycerol was orally administered as a vehicle. [table] In order to confirm the morphological change of male C57BL/6 mouse hair follicles, skin tissues collected at week 5 after […] administration were stained with hematoxylin-eosin and observed with an optical microscope to confirm the number of hair follicles, and the results are shown in FIGS. 5a and 5b."}}}
{"smiles": "CC(C)(C)NC(=O)[C@H]1CC[C@H]2[C@@H]3CC[C@H]4NC(=O)C=C[C@]4(C)[C@H]3CC[C@]12C", "note": "[finasteride]", "values": [{"measurement": "hair growth / regrowth in hair loss regions (photograph)", "setting": "[1]", "result": "almost all regions thereof were changed to black at week 5"}, {"measurement": "skin color change in hair loss regions of the back (photograph)", "setting": "[1]", "result": "skin color was darkened from week 3 of treatment"}, {"measurement": "hair length, comparison between treated groups", "setting": "[2]", "result": "showed similar patterns"}, {"measurement": "number of telogen hair follicles compared to the negative control group", "setting": "[3]", "result": "increased"}]}
